We go through 15 compounds from paper PMC8162404, “Proteomimetic surface fragments distinguish targets by function” (Chemical Science, 2020).

Assay [1] addresses T1, S100A4 (Homo sapiens, UniProt P26447).
T1 construct: made in house; host or cells: Escherichia coli BL21(DE3)
The assay can be described thus: Pull-down assay with immobilized protein and LSM libraries. The class given is binding. Particulars: H14 library; 1:1 binding assumed; read-out: Surface mapping KD (apparent). In short, it runs like this:
(§1)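 Buffers were HEPES pH 7.4 with 150 mM NaCl, plus 1 mM TCEP and 1 mM CaCl2 (50 mM HEPES) for S100A4 and S100B, 1 mM TCEP for Gal-1, and no additive for RecQ-WH. Immobilized protein at 64 µM was equilibrated 30 min with the LSM sublibrary, and unbound probes were measured by LC-MS.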

The target of assay [2] is T2, Gal-1 (Homo sapiens, UniProt P09382).
T2 construct: made in house; host or cells: E. coli BL21(DE3)
T2 sequence (P09382 whole entry): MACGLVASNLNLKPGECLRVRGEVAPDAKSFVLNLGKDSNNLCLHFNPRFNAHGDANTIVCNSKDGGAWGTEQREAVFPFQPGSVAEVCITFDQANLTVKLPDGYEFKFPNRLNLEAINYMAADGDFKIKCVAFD
Described as above. Format: binding. Particulars: H14 library; 1:1 binding assumed; read-out: Surface mapping KD (apparent). The essentials:
(§2)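 His-tagged protein immobilized on Co-NTA resin (64 µM) in 20 mM HEPES pH 7.4, 150 mM NaCl, equilibrated 30 min at room temperature with foldamer LSM sublibraries at equimolar total concentration. Unbound fractions quantified by HPLC-MS versus protein-free resin control; apparent KD assumes 1:1 binding.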

Assay [3] has as its target T3, S100B (Homo sapiens, UniProt P04271).
T3 construct: made in house; host or cells: Escherichia coli BL21(DE3)
T3 sequence (P04271 1-92): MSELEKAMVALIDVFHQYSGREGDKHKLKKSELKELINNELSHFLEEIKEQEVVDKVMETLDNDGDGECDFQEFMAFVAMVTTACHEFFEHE
The assay is described as above. Format: binding. Particulars: H14 library; 1:1 binding assumed; read-out: Surface mapping KD (apparent). In short, it runs like this:
as §1

For assay [4], the target named is T4, RecQ-WH (Escherichia coli, UniProt P15043).
T4 construct: coding for residues 408– 523 of E. coli RecQ; made in house; host or cells: E. coli BL21(DE3)
T4 sequence (P15043 408-523): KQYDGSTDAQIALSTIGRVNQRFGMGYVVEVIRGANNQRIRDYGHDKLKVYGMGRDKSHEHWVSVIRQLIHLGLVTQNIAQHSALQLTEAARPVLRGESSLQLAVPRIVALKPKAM
Kind of assay: Competition pull-down with native ligand SSB-Ct8. The class given is binding, E. coli. Particulars: H14 library; competitor peptide 200 µM; read-out: Surface mapping KD (apparent), competition.

Assay [5] has as its target T3, S100B. The assay can be described thus: Competition pull-down with native ligand RSK1 (689–735). The class given is binding. To be noted: H14 library; competitor peptide 200 µM; read-out: Surface mapping KD (apparent), competition.
The target of assay [6] is T4, RecQ-WH. The assay can be described thus: Pull-down assay with immobilized protein and LSM libraries. Further details: species or system E. coli. Particulars: H14 library; 1:1 binding assumed; read-out: Surface mapping KD (apparent). In short, it runs like this: as §2
The target in assay [7] is T5, CaM (Bos taurus, UniProt P62157).
T5 construct: made in house; host or cells: E. coli BL21 (DE3)
The assay is described as above. To be noted: H14 library; 1:2 stoichiometry assumed; read-out: Surface mapping KD (apparent). Format: binding, bovine. In short, it runs like this:
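His-tagged protein immobilized on Co-NTA resin, equilibrated 30 min at room temperature with LSM sublibraries (64 members, […]), equimolar protein to total probe. CaM buffer: 20 mM HEPES pH 7.4, 150 mM NaCl, 5 mM CaCl2. Bound fractions from HPLC-MS loss of unbound probe versus protein-free resin control; Kd derived.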

Assay [8] addresses T2, Gal-1. Kind of assay: Competition pull-down with lactose. Format: binding. To be noted: H14 library; lactose 10 mM; read-out: Surface mapping KD (apparent), competition. The essentials:
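His6-tagged proteins immobilized on Co-NTA resin at 64 µM final with 64-member LSM foldamer sublibraries (1 M each, as printed) in pH 7.4 HEPES/NaCl buffers (Ca2+/TCEP per target), 30 min RT; competitor peptides 200 µM final, lactose 10 mM for Gal-1. Bound fractions from LC-MS loss vs protein-free resin; KD assuming 1:1 binding.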

In assay [9] the target is T5, CaM. The assay can be described thus: Competition pull-down with native ligand TRPV1-Ct15. The class given is binding, bovine. Particulars: H14 library; competitor peptide 200 µM; read-out: Surface mapping KD (apparent), competition.

T1 sequence (P26447 whole entry): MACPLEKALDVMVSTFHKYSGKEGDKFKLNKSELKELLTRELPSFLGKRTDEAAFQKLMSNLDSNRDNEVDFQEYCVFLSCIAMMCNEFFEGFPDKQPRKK

Take `NC(=O)[C@H]1CCCC[C@@H]1NC(=O)C[C@H](Cc1ccc(O)cc1)NC(=O)[C@H]1CCCC[C@@H]1NC(=O)[C@H]1CCCC[C@@H]1NC(=O)C[C@H](Cc1ccc(O)cc1)NC(=O)[C@H]1CCCC[C@@H]1N` [H14 YY]: the Kd in [1] was 70 µM; in assay [2], 375 µM; in [3], 121 µM; in assay [4], 298 µM; in assay [5], 393 µM; in [6], 114 µM. Further, the Kd in assay [7] came to 7 µM.
Consider `NC(=O)[C@H]1CCCC[C@@H]1NC(=O)C[C@H](CC(=O)O)NC(=O)[C@H]1CCCC[C@@H]1NC(=O)[C@H]1CCCC[C@@H]1NC(=O)C[C@H](Cc1c[nH]c2ccccc12)NC(=O)[C@H]1CCCC[C@@H]1N` [H14 WD], for which the figures for the Kd in assay [4], in assay [6] and in [7] were 479 µM, 145 µM and 308 µM, respectively.
As to `NC(=O)[C@H]1CCCC[C@@H]1NC(=O)C[C@H](Cc1c[nH]c2ccccc12)NC(=O)[C@H]1CCCC[C@@H]1NC(=O)[C@H]1CCCC[C@@H]1NC(=O)C[C@H](CO)NC(=O)[C@H]1CCCC[C@@H]1N` [H14 SW], the Kd in assay [8] was determined as 177 µM; in assay [1], 179 µM; in [2], 151 µM; in [3] it was 79 µM; in assay [4] it was 265 µM; in assay [5], 458 µM. Moreover, the Kd in assay [6] was determined as 73 µM; in assay [7] it was 23 µM.
On to `CC(C)C[C@@H](CC(=O)N[C@H]1CCCC[C@@H]1C(N)=O)NC(=O)[C@H]1CCCC[C@@H]1NC(=O)[C@H]1CCCC[C@@H]1NC(=O)C[C@H](Cc1ccc(O)cc1)NC(=O)[C@H]1CCCC[C@@H]1N` [H14 YL], for which the Kd in [8] is 256 µM; in [9] it was 428 µM; in [1] it was 19 µM; in assay [2], 148 µM; in [3], 62 µM; in assay [5] it was 201 µM. In addition, the Kd is 150 µM in assay [6] and 2 µM in assay [7].
Regarding `CSCC[C@@H](CC(=O)N[C@H]1CCCC[C@@H]1C(=O)N[C@H]1CCCC[C@@H]1C(=O)N[C@H](CC(=O)N[C@H]1CCCC[C@@H]1C(N)=O)Cc1ccc(O)cc1)NC(=O)[C@H]1CCCC[C@@H]1N` [H14 MY], the Kd came out at 133 µM in assay [8]; 402 µM in assay [9]; 90 µM in [1]; 98 µM in assay [2]; 176 µM in [3]; 330 µM in [5]. Also, the Kd in assay [6] came out at 263 µM; in [7], 15 µM.
For `CSCC[C@@H](CC(=O)N[C@H]1CCCC[C@@H]1C(=O)N[C@H]1CCCC[C@@H]1C(=O)N[C@H](CC(=O)N[C@H]1CCCC[C@@H]1C(N)=O)Cc1c[nH]c2ccccc12)NC(=O)[C@H]1CCCC[C@@H]1N` [H14 MW], the Kd in assay [8] turned out to be 172 µM; in assay [9] it was 208 µM; in [1], 41 µM; in [2] it was 141 µM; in assay [3], 44 µM; in [5], 131 µM. Also, the Kd in [6] was 197 µM; in assay [7] it was 2 µM.
Consider `CSCC[C@@H](CC(=O)N[C@H]1CCCC[C@@H]1C(=O)N[C@H]1CCCC[C@@H]1C(=O)N[C@H](CC(=O)N[C@H]1CCCC[C@@H]1C(N)=O)Cc1ccccc1)NC(=O)[C@H]1CCCC[C@@H]1N` [H14 MF], for which the Kd in assay [8] was 181 µM; in [9] it was 133 µM; in assay [1], 23 µM; in assay [2], 223 µM; in assay [3], 85 µM; in assay [5], 316 µM. The Kd was determined as 304 µM in assay [6] and 2 µM in assay [7].
Consider `NC(=O)[C@H]1CCCC[C@@H]1NC(=O)C[C@H](Cc1ccc(O)cc1)NC(=O)[C@H]1CCCC[C@@H]1NC(=O)[C@H]1CCCC[C@@H]1NC(=O)C[C@H](Cc1ccccc1)NC(=O)[C@H]1CCCC[C@@H]1N` [H14 FY], for which the Kd in [8] came to 395 µM; in [1], 57 µM; in assay [2], 214 µM; in assay [3], 96 µM; in [4] it was 231 µM; in assay [5] it was 146 µM. The Kd came to 92 µM in assay [6] and 3 µM in [7].
Regarding `N=C(N)NCCC[C@@H](CC(=O)N[C@H]1CCCC[C@@H]1C(N)=O)NC(=O)[C@H]1CCCC[C@@H]1NC(=O)[C@H]1CCCC[C@@H]1NC(=O)C[C@H](Cc1ccccc1)NC(=O)[C@H]1CCCC[C@@H]1N` [H14 FR], the Kd in [8] is 208 µM; in assay [9], 290 µM; in [1], 124 µM; in [2] it was 222 µM; in assay [3], 56 µM; in [5], 406 µM. For the same compound, the Kd in [6] amounted to 447 µM; in [7] it was 3 µM.
On to `C[C@@H](CC(=O)N[C@H]1CCCC[C@@H]1C(N)=O)NC(=O)[C@H]1CCCC[C@@H]1NC(=O)[C@H]1CCCC[C@@H]1NC(=O)C[C@H](Cc1ccccc1)NC(=O)[C@H]1CCCC[C@@H]1N` [H14 FA], for which the Kd in assay [8] stood at 151 µM; in assay [9] it was 309 µM; in assay [1], 58 µM; in assay [2], 130 µM; in assay [3] it was 253 µM; in [5], 330 µM. Moreover, the Kd in assay [6] was found to be 282 µM; in [7], 3 µM.
`N=C(N)NCCC[C@@H](CC(=O)N[C@H]1CCCC[C@@H]1C(N)=O)NC(=O)[C@H]1CCCC[C@@H]1NC(=O)[C@H]1CCCC[C@@H]1NC(=O)C[C@H](Cc1c[nH]c2ccccc12)NC(=O)[C@H]1CCCC[C@@H]1N` [H14 WR]: the Kd was determined as 280 µM in [8]; 167 µM in assay [9]; 81 µM in assay [1]; 278 µM in [2]; 32 µM in assay [3]; 166 µM in assay [5]. Moreover, the Kd in [6] was found to be 272 µM; in assay [7], 0.5 µM.
Take `CC[C@H](C)[C@@H](CC(=O)N[C@H]1CCCC[C@@H]1C(N)=O)NC(=O)[C@H]1CCCC[C@@H]1NC(=O)[C@H]1CCCC[C@@H]1NC(=O)C[C@H](Cc1ccc(O)cc1)NC(=O)[C@H]1CCCC[C@@H]1N` [H14 YI]: the Kd in [8] came to 256 µM; in assay [9], 428 µM; in assay [1], 19 µM; in assay [2], 148 µM; in [3] it was 62 µM; in assay [5], 201 µM. Moreover, the Kd in assay [6] worked out at 150 µM; in [7] it was 2 µM.
In the case of `NCCCC[C@@H](CC(=O)N[C@H]1CCCC[C@@H]1C(N)=O)NC(=O)[C@H]1CCCC[C@@H]1NC(=O)[C@H]1CCCC[C@@H]1NC(=O)C[C@H](Cc1c[nH]c2ccccc12)NC(=O)[C@H]1CCCC[C@@H]1N` [H14 WK], the Kd in assay [8] came to 252 µM; in assay [9], 201 µM; in assay [1], 136 µM; in assay [2], 262 µM; in assay [3] it was 40 µM; in assay [5], 412 µM. Also, the Kd in [6] amounted to 287 µM; in [7] it was 1.1 µM.
Take `C[C@@H](O)[C@@H](CC(=O)N[C@H]1CCCC[C@@H]1C(=O)N[C@H]1CCCC[C@@H]1C(=O)N[C@H](CC(=O)N[C@H]1CCCC[C@@H]1C(N)=O)Cc1ccccc1)NC(=O)[C@H]1CCCC[C@@H]1N` [H14 TF]: the Kd in assay [8] is 220 µM; in assay [9], 94 µM; in assay [1] it was 43 µM; in assay [2], 140 µM; in assay [3], 44 µM; in assay [5] it was 294 µM. In addition, the values for the Kd in [6] and in assay [7] were 407 µM and 163 µM, respectively.
Turning to `CSCC[C@@H](CC(=O)N[C@H]1CCCC[C@@H]1C(N)=O)NC(=O)[C@H]1CCCC[C@@H]1NC(=O)[C@H]1CCCC[C@@H]1NC(=O)C[C@H](Cc1ccc(O)cc1)NC(=O)[C@H]1CCCC[C@@H]1N` [H14 YM], the Kd in assay [8] was found to be 133 µM; in assay [9], 402 µM; in [1], 90 µM; in assay [2], 98 µM; in assay [3] it was 176 µM; in assay [5] it was 344 µM. In addition, the Kd was 263 µM in assay [6] and 7 µM in assay [7].
